Legend:
[1] = target: T1, recombinant HSF1 DNA-binding domain (DBD) (Homo sapiens, UniProt Q00613); assay: Differential Scanning Fluorimetry (DSF), HSF1 DBD melting temperature
T1 sequence (Q00613 15-120): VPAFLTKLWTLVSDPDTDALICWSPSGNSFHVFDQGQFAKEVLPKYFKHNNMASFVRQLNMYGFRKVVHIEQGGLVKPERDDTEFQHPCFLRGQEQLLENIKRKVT

[2] = test system: heat shock induced chaperone (Hsp25 and Hsp70) expression; assay: Heat shock induced chaperone expression in MEFs, immunoblotting; format: cell-based, mouse; conditions: heat shock 42° C. 30 mins, 6-hour recovery, FIG. 3
Procedure: The MEFs were then subjected to heat shock stress at 42° C. for 30 mins to activate HSF1. After heat shock, the MEFs were incubated at 37° C. for a 6-hour recovery. The whole cell lysates were collected at the end of the experiment, and proteins of interest, including Hsp25, Hsp70, HSF1 and GAPDH (as loading control) were assessed by immunoblotting with the corresponding antibody.

[3] = target: recombinant protein Hsc70 (Homo sapiens, UniProt P11142); assay: Thermal denaturation of Hsc70 (selectivity); conditions: selectivity in binding, FIG. 2
Chain of recombinant protein Hsc70 (P11142 whole entry, species assumed): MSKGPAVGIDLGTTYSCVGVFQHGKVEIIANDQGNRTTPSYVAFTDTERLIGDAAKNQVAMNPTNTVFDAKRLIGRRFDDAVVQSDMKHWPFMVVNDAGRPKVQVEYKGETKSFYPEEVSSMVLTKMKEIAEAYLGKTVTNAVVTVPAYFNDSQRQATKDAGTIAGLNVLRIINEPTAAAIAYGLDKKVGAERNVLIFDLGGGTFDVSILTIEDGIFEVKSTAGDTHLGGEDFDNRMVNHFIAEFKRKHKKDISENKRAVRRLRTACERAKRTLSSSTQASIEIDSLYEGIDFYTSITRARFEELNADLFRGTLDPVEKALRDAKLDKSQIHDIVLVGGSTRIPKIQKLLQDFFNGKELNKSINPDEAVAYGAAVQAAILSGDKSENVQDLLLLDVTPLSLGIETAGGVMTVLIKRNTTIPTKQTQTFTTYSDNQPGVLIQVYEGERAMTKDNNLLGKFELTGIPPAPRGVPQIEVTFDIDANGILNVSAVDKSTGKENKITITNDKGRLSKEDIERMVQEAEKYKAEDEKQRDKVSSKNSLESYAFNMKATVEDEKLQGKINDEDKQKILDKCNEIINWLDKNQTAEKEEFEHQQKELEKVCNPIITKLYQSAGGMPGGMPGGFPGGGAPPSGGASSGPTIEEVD

Row | Structure (SMILES) | binding to HSF1 ([1]; thermal denaturation assay) | heat shock induced chaperone (Hsp25 and Hsp70) expression [2] | ΔTm at 25 µM ([1]; Table 1, 5 μM HSF1 DBD, 25PM Compound, positive = stabilizes, negative = destabilizes HSF1) | effect on melting temperature of HSF1 ([1]; thermal denaturation profiling, FIG. 2) | effect on melting of unrelated protein Hsc70 [3]
1 | O=C(Nc1ccccc1)Nc1ccccc1 [1,3-diphenylurea, reference compound] | fails to bind HSF1 | showed no impact on HSF1 activity | – | – | –
2 | COc1cccc(-c2cnc(Nc3ccc(F)cc3)s2)c1 [Compound 0050] | – | – | 2.93 °C | stabilized the melting temperature of HSF1 | did not affect the melting
